The target in one data set is T1, CD13 (aminopeptidase N) (Homo sapiens, UniProt P15144).
T1 construct: histidine tag
The data set is described as follows: CD13 enzyme kinetics inhibition assay (L-alanine p-nitroanilide substrate). It counts as biochemical. As to conditions: in different experimental conditions. From the text:
FIG. 10. The peptide SCNGRCGVRY (SEQ ID NO: 3) inhibits CD13 enzymatic activity more efficiently than CNGRCGVRY (SEQ ID NO:4) and acetylated-CNGRCGVRY. A) Steady state kinetic analysis of CD13 in the presence of various amounts of L-alanine p-nitroanilide substrate and SCNGRCGVRY (SEQ ID NO: 3), CNGRCGVRY (SEQ ID NO:4), or acetylated-CNGRCGVRY (ac-CNGRCGVRY) (SEQ ID NO:42). A representative plot of 3-4 independent experiments, showing the initial velocity (V0) versus substrate concentration (mean ± SE of four technical replicates), is shown. The assays were performed with recombinant human histidine-tagged CD13 (200-300 ng/ml) in 60 mM potassium phosphate buffer, pH 7.4, at room temperature. The kinetic of p-nitroanilide formation was monitored spectrophotometrically (A405 nm) for 5-10 min. The inhibitory constant (Ki) reported in each plot is the result of the 3-4 independent experiments (mean ± SE). B) Double reciprocal plots of the experiments reported in panel A.
To rule out the possibility that the addition of the serine residue to the N-terminus of NGR-TNF abrogates or reduces its affinity for CD13 inventors performed enzyme kinetics inhibition assays with CD13 (aminopeptidase N) and SCNGRCGVRY (SEQ ID NO: 3), CNGRCGVRY (SEQ ID NO:4) or acetyl-CNGRCGVRY (corresponding to the N-terminal region of human S-NGR-TNF and NGR-TNF).

Another data set addresses α5β1 (Homo sapiens, UniProt P05556+P08648). The data set is described as follows: Competitive binding of acetyl-CisoDGRCG/streptavidin-peroxidase to integrin-coated microtiterplates. The note with it: mean ± SE. From the text:
(§1) To assess whether the isoDGR derivative of S-NGR-TNF and NGR-TNF targeting domains can recognize integrins with similar affinities inventors then analysed the binding of SCisoDGRCGVRY (SEQ ID NO: 17), CisoDGRCGVRY and acetyl-CisoDGRCGVRY to αvβ3, αvβ5, αvβ6 αvβ8 and α5β1 integrins using a competitive binding assay previously described (Curnis et al. 2010). […] As expected […] (SEQ ID NO: 3) and […] […] Considering that human NGR-TNF contains acetylated and non-acetylated forms and that both CNGRC (SEQ ID NO:5) and acetyl-CNGRC can undergo deamidation (Curnis et al. 2010), inventors can conclude that the isoDGR derivative of S-NGR-TNF, if formed, behave in a manner similar to those of the isoDGR derivatives of NGR-TNF in terms of integrin recognition.

The next data set addresses αvβ3 (Homo sapiens, UniProt P05106+P06756). Described as above.
Text: as §1

For another data set, the target named is αvβ5 (Homo sapiens, UniProt P06756+P18084). The data set is described as above. The note with it: mean ± SE.
Text: as §1

A further data set deals with αvβ6 (Homo sapiens, UniProt P06756+P18564). The data set is described as above. As to conditions: mean ± SE.
Text: as §1

Another data set deals with αvβ8 (Homo sapiens, UniProt P06756+P26012). The description is as above. The note with it: mean ± SE.
Text: as §1

Data set [1] is described as follows: Peptide deamidation stability upon incubation at 37° C., by mass spectrometry. It counts as physicochemical. As to conditions: after 32 h at 37° C. in PBS, pH 7.4. On the procedure: FIG. 11. The peptide SCNGRCGVRY (SEQ ID NO: 3) has a lower propensity to deamidate than CNGRCGVRY (SEQ ID NO:4) in a physiological buffer at […], but not in ammonium bicarbonate buffer at pH 8.5. A and B) MS analysis of SCNGRCGVRY (SEQ ID NO: 3) and CNGRCGVRY (SEQ ID NO:4) after incubation at 37° C. for the indicated time in 50 mM sodium phosphate buffer, pH 7.4 (PBS) or 0.1 M ammonium bicarbonate buffer, pH 8.5 (Ambic). The values +0, + 1, -17 reported in the plot correspond to the difference between the observed and the expected molecular mass of peptides expressed in daltons. MS analysis was performed using the LTQ-Orbitrap mass spectrometer (Thermo Scientific).
To assess whether the addition of the serine residue to CNGRCG (SEQ ID NO:1) might affect its deamidation propensity inventors synthetized the SCNGRCGVRY (SEQ ID NO: 3) and CNGRCGVRY (SEQ ID NO:4) peptides and studied their stability upon incubation at 37° C. in PBS, pH 7.4, by mass spectrometry.
A similar experiment was then performed with peptides in 0.1 M ammonium bicarbonate, pH 8.5, a condition known to force Asn deamidation (Curnis et al. 2006). […] Furthermore, the succinimide-derivative of S-NGR-TNF, when formed, is more prone to hydrolysis.

Positions of bridges follow the written chain, without caps; N, C: chain ends. Residues, ends and D or L forms follow the SMILES beside them. A value given as a limit tells only on which side of the number the result lay.

In the case of `CC(C)[C@H](NC(=O)CNC(=O)[C@@H]1CSSC[C@H](NC(=O)[C@@H](N)CO)C(=O)N[C@@H](CC(N)=O)C(=O)NCC(=O)N[C@@H](CCCNC(=N)N)C(=O)N1)C(=O)N[C@@H](CCCNC(=N)N)C(=O)N[C@@H](Cc1ccc(O)cc1)C(=O)O` [SCNGRCGVRY, SCNGRCGVRY (SEQ ID NO: 3)] (H-SCNGRCGVRY-OH; disulfide 2-6; N-terminus and C-terminus assumed), the “Ki value for CD13 lower than that of CNGRCGVRY” value on CD13 (aminopeptidase N) is 3-5 fold. Besides, the Ki at α5β1, on αvβ3 (mean ± SE), at αvβ5, at αvβ6 and at αvβ8 was greater than 10 µM each time. Besides, on αvβ3 (αvβ3, αvβ5, αvβ6, αvβ8 and α5β1 (all integrins)), the affinity for integrins result is “no or very low affinity”. Besides, the “+1 Da deamidation product (DGR/isoDGR)” value in data set [1] is “observed”. The “-17 Da form still present” value in data set [1] is recorded as “not”.

The record behind these values is patent US20230181719A1, “NGR CONJUGATES AND USES THEREOF” (OSPEDALE SAN RAFFAELE S.R.L., priority 2020, published 2023).
